Assay results as given in US20070225363A1, “Methods and Agents for Inhibiting Dynamin-Dependent Endocytosis” (the University of Newcastle Research Associates Ltd., priority 2003, published 2007).
“Also recorded” adds a separate entry of the source.

Tests used:
HER14 cells = assay: Texas Red-transferrin uptake in HER14 cells; type: cell-based; settings: drug added 15 or 60 minutes before Tf-TxR
Experimental: Transferrin (Tf) uptake was analysed in Swiss 3T3 and HER14 cells based on methods previously described (van der Bliek et al., 1993). Briefly, cells were plated to 60% confluency in DMEM medium plus 10% foetal calf serum after which the cells were incubated overnight (8-10 hours) in DMEM minus foetal calf serum. Texas red-transferrin (Tf-TxR, Molecular Probes, Oregon) was added to a final concentration of 5 μg/ml and the cells incubated at 37° C. for 10 minutes. Cell surface staining was removed by incubating the cells in an ice cold acid wash solution (0.2 M acetic acid +0.5 M NaCl, pH 2.8) for 15 minutes. Cells were immediately fixed with 4% paraformaldehyde for 10 minutes then washed 3 times with PBS. Nuclei were stained using DAPI (Molecular Probes, Oregon). Slides were mounted using DABCO and the fluorescence was monitored using a Leica DMLB bright field microscope and SPOT digital camera.

dynamin II [1] = molecular target: T1, dynamin II (Rattus norvegicus, UniProt P39052); assay: Dynamin II GTPase assay ([γ-32P]GTP hydrolysis); type: biochemical; settings: GTPase activity, FIG. 1e
T1 construct: made in house; host or cells: insect cells
T1 sequence (P39052 1-870): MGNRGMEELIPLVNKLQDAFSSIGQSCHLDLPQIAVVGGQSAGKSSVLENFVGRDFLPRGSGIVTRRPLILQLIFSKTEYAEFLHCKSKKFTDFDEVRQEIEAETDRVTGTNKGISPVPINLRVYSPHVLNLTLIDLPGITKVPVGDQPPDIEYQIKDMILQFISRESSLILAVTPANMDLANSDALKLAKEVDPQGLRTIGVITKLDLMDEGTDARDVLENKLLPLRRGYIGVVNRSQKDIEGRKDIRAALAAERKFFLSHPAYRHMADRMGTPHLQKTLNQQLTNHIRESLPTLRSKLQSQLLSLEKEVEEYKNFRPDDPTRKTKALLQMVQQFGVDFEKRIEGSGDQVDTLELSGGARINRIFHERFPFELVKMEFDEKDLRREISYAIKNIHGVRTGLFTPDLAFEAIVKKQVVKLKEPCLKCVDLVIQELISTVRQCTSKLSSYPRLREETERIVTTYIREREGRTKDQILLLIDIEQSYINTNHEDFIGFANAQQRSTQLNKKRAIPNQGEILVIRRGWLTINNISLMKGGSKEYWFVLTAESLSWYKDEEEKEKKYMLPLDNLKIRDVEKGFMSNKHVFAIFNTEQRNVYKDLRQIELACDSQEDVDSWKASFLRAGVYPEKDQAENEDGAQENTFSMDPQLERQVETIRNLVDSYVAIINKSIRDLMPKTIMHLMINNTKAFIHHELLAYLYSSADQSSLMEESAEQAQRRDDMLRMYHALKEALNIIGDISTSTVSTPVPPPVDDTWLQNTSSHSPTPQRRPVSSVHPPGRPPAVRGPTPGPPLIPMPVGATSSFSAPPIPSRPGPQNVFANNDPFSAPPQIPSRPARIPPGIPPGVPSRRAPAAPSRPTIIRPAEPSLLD
Experimental: The plasmid for GST-Amph2-SH3 (muscle Amph2) (Butler et al., 1997) was provided by Pieto DeCamilli, Yale, Connecticut, USA, in pGEX2T vectors. The plasmid was grown in E. coli and the GST-Amph2-SH3 fusion protein was purified on glutathione (GSH)-Sepharose by elution with 10 mM reduced GSH in 20 mM Tris-HCl, pH 7.5, dialysed against the same buffer without GSH and stored at 4° C. Dynamin was purified from sheep brain by extraction from the peripheral membrane fraction of whole brain (Robinson et al., 1993) and affinity purification on GST-Amph2-SH3-sepharose as previously described (Marks and McMahon., 1998), yielding 8 mg protein from 250 g sheep brain. Recombinant dynamin II was expressed in insect cells and was a gift from Dr Sandra Schmid (Scripps, San Diego, Calif.). Recombinant dynamin I lacking the PH domain (dynamin PH, provided by Robin Scaife) was expressed in insect cells using baculoviral infection (Salim et al., 1996).
Dynamin GTPase activity was determined by hydrolysis of [ ? -^32P]GTP by a method modified from that described previously (Robinson et al., 1993). […] Dynamin activity was measured as either basal or phospholipid-stimulated with the addition of 5 μg/ml L-phosphatidylserine. […] After centrifuging for 5 min (13,000 rpm at room temperature), 200 μl of each supernatant was counted in a -counter for the release of ^32Pi from [ ? -^32P]-GTP.

dynamin II [2] = assay: [α-32P]-GTP binding assay, dynamin II
Experimental: The [α-^32P]-GTP-binding assay was performed in the wells of a 96-well microtitre plate. Dynamin (0.2 μg/well) was added to GTPase buffer and incubated for 10 min at 4 C in the dark. [α-^32P]-GTP (2 μCi/tube) was then added to the reaction and incubated for a further 10 min at 4 C. in the dark. The microtitre plate was then irradiated with a short wavelength ultraviolet lamp at […] for 30 min at a distance of 8 cm. The specificity of photolabelling was determined by comparing the labelling in the presence and absence of 1 mM cold GTP. Samples were then applied to nitrocellulose membranes by aspiration through the wells of a 24 well slot blotter. The nitrocellulose was washed 3 times with PBS and dried. Bound nucleotide was detected by a phosphorimager (Molecular Dynamics).

For `N#C/C(=C\c1ccc(O)c(O)c1)C(=O)NCCCNC(=O)/C(C#N)=C/c1ccc(O)c(O)c1` [bis-tyrphostin], the “internalisation of texas-red labelled transferrin into HER14 cells” value (HER14 cells) was “very large decrease in transferrin staining; also recorded: inhibited”, the IC50 (dynamin II [1]) was 500 nM and the “[α-32P]-GTP binding to dynamin II in the presence of drug” value (dynamin II [2]) was “not seen to decrease; also recorded: not affected”.
